The values that follow come from US9180107B2 (NANOPHARMACEUTICALS LLC, priority 2009, dated 2015).

One experiment has as its system TGS112T cells. Kind of experiment: Cell proliferation by cell counting. Format: cell-based, human. The conditions noted are these: treated daily with 10^−6 M. As for the experimental part:
FIG. 6 is a series of graphs showing the effects of tetrac and nano-tetrac in human adenoid cystic carcinoma (TGS112T). In FIG. 6A, TGS112T cancer cells were treated with 10^−7M T4 in the presence or absence of 10^−7M tetrac for 24 h. T4-induced PCNA expression was inhibited by tetrac. In FIG. 6B, TGS112T cancer cells were treated with 10^−7 M T4 in the presence or absence of 10^−7 M tetrac or nano-tetrac, daily and 1 μCi [^3H]-thymidine (final concentration, 13 nM) was added for 24 h. […] In FIG. 6C, TGS112T cells were treated daily with 10^−6 M tetrac or nano-tetrac. Cells were harvested at the time points as indicated. Total cell numbers taken after each treatment were used as indicator for tetrac- or nano-tetrac-induced anti-proliferation.
Human adenoid cystic carcinoma TGS112T cells were cultured in medium that contained 0.25% hormone-stripped serum for 2 d and then treated with 10^−7 M tetrac or nano-tetrac for 30 min prior institution of 10^−7 M T4 treatment for 24 h. Nuclear proteins were separated by SDS-PAGE followed by western blot analysis with proliferating-cell nuclear antigen (PCNA) antibody. Thyroid hormone-induced PCNA accumulation was inhibited by tetrac. (See FIG. 6A). […] (See FIG. 6A). Inhibition of thyroid hormone-induced proliferation was confirmed by inhibition by tetrac and nano-tetrac of thyroid hormone-induced accumulation and [^3H]-thymidine incorporation. […]

The next experiment concerns MDA-MB cells. The experiment is described as follows: Pro-apoptotic gene expression by RT-PCR. The note with it: 10^−6 M. In kind it is cell-based, human. As for the experimental part:
MDA-MB cells were treated daily with 10^−6M of tetrac or nano-tetrac in bellows perfusion culture system. Cells were harvested after 3 days of treatment and total RNA was extracted. RT-PCR was conducted as described in Example 1, infra.
Total RNA was isolated as described previously. (See Lin et al., 2008. Carcinogenesis. 29:62-69). First strand complementary DNAs were synthesized from 1 μg of total RNA using oligo dT and AMV Reverse Transcriptase (Promega, Madison, Wis.). First-strand cDNA templates were amplified for GAPDH, c-fos, PIG3, c-Jun, and BAD mRNAs by polymerase chain reaction (PCR), using a hot start (Ampliwax, Perkin Elmer, Foster City, Calif.). Primer sequences were GAPDH [5′-[…]-3′ (forward) (SEQ ID NO: 1) and 5′-[…]-3′ (reverse) (SEQ ID NO:2)], c-fos [5′-[…]-3′(forward) (SEQ ID NO:3) and 5′-CAGTCA-[…]-3′ (reverse) (SEQ ID NO:4)], PIG3 [5′-[…]-[…]-3′(forward) (SEQ ID NO:5) and 5′-[…]-3′ (reverse) (SEQ ID NO:6)], c-jun [5′-[…]-3′ (forward) (SEQ ID NO:7) and 5′-[…]-3′ (reverse) (SEQ ID NO:8)] and BAD [5′-GTT-[…]-3′ (forward) (SEQ ID NO:9) and 5′-[…]-3′ (reverse) (SEQ ID NO:10)]. The PCR cycle was an initial step of 95° C. for 3 min, followed by 94° C. for 1 min, 55° C. for 1 min, 72° C. for 1 min, then 25 cycles and a final cycle of 72° C. for 8 min. […] Photographs were scanned under direct light for quantitation and illustration. […]

`O=C(O)Cc1cc(I)c(Oc2cc(I)c(O)c(I)c2)c(I)c1` [tetrac, Tetraiodothyroacetic acid]: the “cell count after 7 d” value in the experiment on TGS112T cells is listed as 3.65×10^8 cells. Further, in the experiment on MDA-MB cells, the expression of c-fos entry is given as “increased expression” and the expression of c-jun entry was “increased expression”.
